Where only a bound is given, the exact number is not on record here.

This passage reports IC50 results from patent publication US10500194B2, “Covalent small molecule DCN1 inhibitors and therapeutic methods using the same” (THE REGENTS OF THE UNIVERSITY OF MICHIGAN, priority 2017, dated 2019).

DCN1, sequence (Q96GG9 58-259): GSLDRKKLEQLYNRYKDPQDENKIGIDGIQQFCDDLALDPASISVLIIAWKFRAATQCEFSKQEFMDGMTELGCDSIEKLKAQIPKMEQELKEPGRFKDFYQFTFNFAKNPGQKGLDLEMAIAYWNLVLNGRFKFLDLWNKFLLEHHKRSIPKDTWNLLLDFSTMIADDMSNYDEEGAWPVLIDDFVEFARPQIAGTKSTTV

For this experiment, the target named is DCN1 (Homo sapiens (Human), UniProt Q96GG9). As to the kind of experiment: Competitive FP binding assay. The settings on record: read-out: Binding affinity to DCN1 (IC50). Here is the method:
The Fluorescence Polarization (FP) competitive binding assays were performed to accurately determine the binding affinities of our DCN1 inhibitors. A novel FAM labeled fluorescent probe compound (46) was designed and synthesized based on one of our potent small molecule DCN1 inhibitors. Equilibrium dissociation constants (Kd) values of 46 to both DCN1 and DCN2 proteins were determined from protein saturation experiments by monitoring the total FP values of mixtures composed with the fluorescent probe at a fixed concentration and proteins with increasing concentrations up to full saturation. Serial dilutions of proteins were mixed with 46 to a final volume of 200 μl in the assay buffer (100 mM phosphate buffer, pH=6.5, with 0.02% Tween-20 and 2% DMSO). Final probe concentration was 5 nM for both assays. Plates were incubated at room temperature for 30 minutes with gentle shaking to assure equilibrium. FP values in millipolarization units (mP) were measured using the Infinite M-1000 plate reader (Tecan U.S., Research Triangle Park, N.C.) in Microfluor 1 96-well, black, round-bottom plates (Thermo Scientific, Waltham, Mass.) at an excitation wavelength of 485 nm and an emission wavelength of 530 nm. Kd values of 46 were calculated by fitting the sigmoidal dose-dependent FP increases as a function of protein concentrations using Graphpad Prism 6.0 software (Graphpad Software, San Diego, Calif.).
Human DCN1 (residues 58-259) were cloned into a pDEST17 plasmid containing an N-terminal His6 tag. DCN2 (residues 62-259), DCN3 (residues 86-304), DCN4 (residues 102-292) and DCN5 (residues 47-237) were cloned into an N-terminal His6-TEV expression vector. Pure proteins were derived from the same expression and purification protocols. Plasmids were transformed into Rosetta2 cells, the cells were grown in Terrific Broth at 37° C. to an O.D.600>1.0 and induced with 0.4 mM Isopropyl β-D-1-thiogalactopyranoside overnight at 20° C. The pelleted cells were resuspended in lysis buffer containing 25 mM Tris-HCl, pH 7.5, 200 mM NaCl and protease inhibitors, sonicated and centrifuged at 34,000×g for 45 minutes to remove debris. Cleared lysate was incubated with Ni-NTA resin (Qiagen) prewashed with lysis buffer, for 1 hr at 4° C. The matrix was loaded into a column then washed with 25 mM Tris-HCl, pH 7.5, 200 mM NaCl and 10 mM imidazole. Protein was eluted with 25 mM Tris-HCl, pH 7.5, 200 mM NaCl and 300 mM imidazole, concentrated and applied to a Superdex 75 (GE Healthcare) column pre-equilibrated with 25 mM Tris pH 7.5, 200 mM NaCl and 1 mM DTT. For DCN2-5, the N-terminal His6 tag was removed prior to gel filtration. Tag removal was achieved through incubation with TEV protease during overnight dialysis against 25 mM Tris pH 7.5, 200 mM NaCl and 1 mM DTT and a second Ni-NTA column. DCN2-5 proteins were stored at −80° C. in 1 mg/mL fractions containing 5% glycerol. The uncleaved DCN1 protein was stored at −80° C. without glycerol.
By IC50 is commonly meant the concentration needed to halve the response being measured. For `C=CC(=O)NC[C@H](Cc1ccccc1)NC(=O)[C@H](Cc1nc2ccc(Cl)cc2s1)NC(=O)CC` [Example 1, N—((S)-2-((S)-3-(6-chlorobenzo[d]thiazol-2-yl)-2-propionamidopropanamido)-3-phenylpropyl)acrylamide], the IC50 was found to be 205 nM. As for `CCC(=O)N[C@@H](Cc1nc2ccc(Cl)cc2s1)C(=O)N[C@H](CNC(=O)/C=C/CN(C)C)Cc1ccccc1` [Example 2, (E)-N—((S)-2-((S)-3-(6-chlorobenzo[d]thiazol-2-yl)-2-propionamidopropanamido)-3-phenylpropyl)-4-(dimethylamino)but-2-enamide], the IC50 was 153 nM.

As for `C=C(CN1CCOCC1)C(=O)NC[C@H](Cc1ccccc1)NC(=O)[C@H](Cc1nc2ccc(Cl)cc2s1)NC(=O)CC` [Example 3, N—((S)-2-((S)-3-(6-chlorobenzo[d]thiazol-2-yl)-2-propionamidopropanamido)-3-phenylpropyl)-2-(morpholinomethyl)acrylamide], the IC50 came to 156 nM. In the case of `C=C(CN1CCOCC1)C(=O)NC[C@H](CC1CCCCC1)NC(=O)[C@H](Cc1nc2ccc(Cl)cc2s1)NC(=O)CC` [Example 5, N—((S)-2-((S)-3-(6-chlorobenzo[d]thiazol-2-yl)-2-propionamidopropanamido)-3-cyclohexylpropyl)-2-(morpholinomethyl)acrylamide], the IC50 was 80.7 nM.

Consider `C=C(CN1CCOCC1)C(=O)NC[C@@H](NC(=O)[C@H](Cc1nc2ccc(Cl)cc2s1)NC(=O)CC)C1CCCC1` [Example 6, N—((S)-2-((S)-3-(6-chlorobenzo[d]thiazol-2-yl)-2-propionamidopropanamido)-2-cyclopentylethyl)-2-(morpholinomethyl)acrylamide], for which the IC50 was 135 nM. For `C=C(CN1CCOCC1)C(=O)NC[C@H](Cc1ccccc1)NC(=O)[C@H](Cc1nc2ccc(CC)cc2s1)NC(=O)CC` [Example 8, N—((S)-2-((S)-3-(6-ethylbenzo[d]thiazol-2-yl)-2-propionamidopropanamido)-3-phenylpropyl)-2-(morpholinomethyl)acrylamide], the IC50 was 99.8 nM.

On to `CCC(=O)N[C@@H](Cc1nc2ccc(Cl)cc2s1)C(=O)N[C@H](CNC(=O)C1=CCCN(C)C1)Cc1ccccc1` [Example 12, N—((S)-2-((S)-3-(6-chlorobenzo[d]thiazol-2-yl)-2-propionamidopropanamido)-3-phenylpropyl)-1-methyl-1,2,5,6-tetrahydropyridine-3-carboxamide], for which the IC50 came to 292 nM. The result for `CCC(=O)N[C@@H](Cc1nc2ccc(Cl)cc2s1)C(=O)N[C@H](CNC(=O)CCl)Cc1ccccc1` [Example 20, (S)—N—((S)-1-(2-chloroacetamido)-3-phenylpropan-2-yl)-3-(6-chlorobenzo[d]thiazol-2-yl)-2-propionamidopropanamide] reads 360 nM; that for `C=C(CN1CCCCC1)C(=O)NC[C@@H](NC(=O)[C@H](Cc1nc2ccc(C(C)C)cc2s1)NC(=O)CC)C1CCCCC1` [Example 23, N—((S)-2-cyclohexyl-2-((S)-3-(6-isopropylbenzo[d]thiazol-2-yl)-2-propionamidopropanamido)ethyl)-2-(piperidin-1-ylmethyl)acrylamide], under 150 nM; that for `C=C(Cn1ccnc1)C(=O)NC[C@@H](NC(=O)[C@H](Cc1nc2ccc(C(C)C)cc2s1)NC(=O)CC)C1CCCCC1` [Example 24, 2-((1H-imidazol-1-yl)methyl)-N—((S)-2-cyclohexyl-2-((S)-3-(6-isopropylbenzo[d]thiazol-2-yl)-2-propionamidopropanamido)ethyl)acrylamide], under 150 nM. Regarding `C=C(CN1CCC1)C(=O)NC[C@@H](NC(=O)[C@H](Cc1nc2ccc(C(C)C)cc2s1)NC(=O)CC)C1CCCCC1` [Example 25, 2-(azetidin-1-ylmethyl)-N—((S)-2-cyclohexyl-2-((S)-3-(6-isopropylbenzo[d]thiazol-2-yl)-2-propionamidopropanamido)ethyl)acrylamide], the half-inhibitory concentration (IC50) is under 150 nM. As for `C=C(CN1CC(F)(F)C1)C(=O)NC[C@@H](NC(=O)[C@H](Cc1nc2ccc(C(C)C)cc2s1)NC(=O)CC)C1CCCCC1` [Example 26, N—((S)-2-cyclohexyl-2-((S)-3-(6-isopropylbenzo[d]thiazol-2-yl)-2-propionamidopropanamido)ethyl)-2-((3,3-difluoroazetidin-1-yl)methyl)acrylamide], the figure is under 150 nM; as for `C=C(CN1CCN(C)CC1)C(=O)NC[C@@H](NC(=O)[C@H](Cc1nc2ccc(C(C)C)cc2s1)NC(=O)CC)C1CCCCC1` [Example 27, N—((S)-2-cyclohexyl-2-((S)-3-(6-isopropylbenzo[d]thiazol-2-yl)-2-propionamidopropanamido)ethyl)-2-((4-methylpiperazin-1-yl)methyl)acrylamide], under 150 nM. The result for `C=C(CN1CCS(=O)(=O)CC1)C(=O)NC[C@@H](NC(=O)[C@H](Cc1nc2ccc(C(C)C)cc2s1)NC(=O)CC)C1CCCCC1` [Example 28, N—((S)-2-cyclohexyl-2-((S)-3-(6-isopropylbenzo[d]thiazol-2-yl)-2-propionamidopropanamido)ethyl)-2-((1,1-dioxidothiomorpholino)methyl)acrylamide] reads under 150 nM; that for `C=C(CN1CCN(CCO)CC1)C(=O)NC[C@@H](NC(=O)[C@H](Cc1nc2ccc(C(C)C)cc2s1)NC(=O)CC)C1CCCCC1` [Example 29, N—((S)-2-cyclohexyl-2-((S)-3-(6-isopropylbenzo[d]thiazol-2-yl)-2-propionamidopropanamido)ethyl)-2-((4-(2-hydroxyethyl)piperazin-1-yl)methyl)acrylamide], under 150 nM; that for `C=C(CN1CCC(F)(F)CC1)C(=O)NC[C@@H](NC(=O)[C@H](Cc1nc2ccc(C(C)C)cc2s1)NC(=O)CC)C1CCCCC1` [Example 30, N—((S)-2-cyclohexyl-2-((S)-3-(6-isopropylbenzo[d]thiazol-2-yl)-2-propionamidopropanamido)ethyl)-2-((4,4-difluoropiperidin-1-yl)methyl)acrylamide], under 150 nM. As for `C=CC(=O)NC[C@H](Cc1ccncc1)NC(=O)[C@H](Cc1nc2ccc(C(C)C)cc2s1)NC(=O)CC` [Example 31, N—((S)-2-((S)-3-(6-isopropylbenzo[d]thiazol-2-yl)-2-propionamidopropanamido)-3-(pyridin-4-yl)propyl)acrylamide], the figure is under 150 nM; as for `C=CC(=O)NC[C@H](Cc1cccnc1)NC(=O)[C@H](Cc1nc2ccc(C(C)C)cc2s1)NC(=O)CC` [Example 32, N—((S)-2-((S)-3-(6-isopropylbenzo[d]thiazol-2-yl)-2-propionamidopropanamido)-3-(pyridin-3-yl)propyl)acrylamide], under 150 nM; as for `C=CS(=O)(=O)NC[C@H](Cc1cccnc1)NC(=O)[C@H](Cc1nc2ccc(C(C)C)cc2s1)NC(=O)CC` [Example 33, (S)-3-(6-isopropylbenzo[d]thiazol-2-yl)-2-propionamido-N—((S)-1-(pyridin-3-yl)-3-(vinylsulfonamido)propan-2-yl)propanamide], under 150 nM. With `C=C(CN1CCOCC1)C(=O)NC[C@H](Cc1cccnc1)NC(=O)[C@H](Cc1nc2ccc(C(C)C)cc2s1)NC(=O)CC` [Example 34, N—((S)-2-((S)-3-(6-isopropylbenzo[d]thiazol-2-yl)-2-propionamidopropanamido)-3-(pyridin-3-yl)propyl)-2-(morpholinomethyl)acrylamide], the IC50 is under 150 nM. The result for `C=C(CN1CCOCC1)C(=O)NC[C@H](Cc1ccccc1)NC(=O)[C@H](Cc1cn2cc(Cl)ccc2n1)NC(=O)CC` [Example 35, N—((S)-2-((S)-3-(6-chloroimidazo[1,2-a]pyridin-2-yl)-2-propionamidopropanamido)-3-phenylpropyl)-2-(morpholinomethyl)acrylamide] reads under 300 nM.

As to `C=C(CN1CCOCC1)C(=O)NC[C@H](Cc1ccc(F)cc1)NC(=O)[C@H](Cc1nc2ccc(C(C)C)cc2s1)NC(=O)CC` [Example 36, N—((S)-3-(4-fluorophenyl)-2-((S)-3-(6-isopropylbenzo[d]thiazol-2-yl)-2-propionamidopropanamido)propyl)-2-(morpholinomethyl)acrylamide], the IC50 was under 150 nM.
